This is an account of results in PubChem BioAssay (NCI).

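Cultured in 96-well plates, cells were exposed to test compound for 48 hours across five concentrations. GI50 is the concentration that inhibits growth by half. At the TGI there is no net growth.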

Holding throughout (test): growth of human tumour cells (NCI), 48 h
For assay [1], the system named is CCRF-CEM leukemia.
Assay [2] deals with SK-OV-3 ovarian.
The test system of assay [3] is HOP-92 NSCLC.
The test system of assay [4] is PC-3 prostate.
The subject of assay [5] is HCT-15 colon.
In assay [6] the test system is MALME-3M melanoma.
The test system of assay [7] is NCI/ADR-RES ovarian.
Assay [8] concerns CAKI-1 renal.

Turning to `Fc1ccc(Nc2nc(Nc3ccc(-c4nc5ccccc5[nH]4)cc3)nc(N3CCCC3)n2)cc1`, the GI50 in assay [1] was 2.98 µM; in assay [2], 15.9 µM; in assay [3], 1.76 µM; in assay [4], 2.74 µM; in assay [5] it was 2.25 µM; in assay [6], 2.17 µM. The GI50 was 2.89 µM in assay [7] and 3.01 µM in assay [8]. The TGI worked out at 10.4 µM in assay [1]; 31.6 µM in assay [2]; 5.38 µM in assay [3]; 8.05 µM in assay [4]; 6.03 µM in assay [5]; 4.81 µM in assay [6]. Further, the values for the TGI in assay [7] and in assay [8] were 12.1 µM and 12.5 µM, respectively.

For the compound `CC1SC(c2cccs2)N(NC(=O)C(O)c2ccccc2)C1=O` (stereo not given), the GI50 in assay [1], in assay [2], in assay [3], in assay [4], in assay [5] and in assay [6] was over 100 µM in each case. Further, in assay [8], the GI50 was over 100 µM. The TGI in assay [1], in assay [2], in assay [3], in assay [4], in assay [5] and in assay [6] was over 100 µM throughout. This compound registered a TGI in assay [8] of over 100 µM.

As for `O=C(NC(=S)NS(=O)(=O)c1ccc(N2N=C3c4ccccc4CC3C2c2cccs2)cc1)c1ccccc1` (stereo not given), the GI50 in assay [1] was 27.9 µM; in assay [2], 90.8 µM; in assay [3], 53.1 µM; in assay [4], 29.7 µM; in assay [5], 30.2 µM; in assay [7], 18.8 µM. Further, the GI50 in assay [8] is 26.1 µM. Further, the TGI was over 100 µM in assay [1]; over 100 µM in assay [2]; over 100 µM in assay [3]; over 100 µM in assay [4]; over 100 µM in assay [5]; 67.1 µM in assay [7]. In addition, in assay [8], the TGI was 77.4 µM.

As for `CN(C)CCn1cc(-c2ccc3c(Nc4ccc(CC(=O)Nc5cccc(F)c5)cc4)ncnc3c2)cn1`, the GI50 in assay [1] was 0.0178 µM; in assay [2], over 10 µM; in assay [3], 6.27 µM; in assay [4] it was 1.75 µM; in assay [5], 4.44 µM; in assay [6], 4.7 µM. The results for the GI50 in assay [7] and in assay [8] were over 10 µM and 1.24 µM, respectively. Besides, the TGI in assay [1] is over 10 µM; in assay [2], over 10 µM; in assay [3] it was over 10 µM; in assay [4], 7.92 µM; in assay [5] it was over 10 µM; in assay [6], over 10 µM. Besides, the TGI in assay [7] is over 10 µM; in assay [8], 3.4 µM.

Take `CCOc1ccc2c(c1)/C(=C\C=C\C1CC(C)C3CC(OCC)CCC3N1CC)CC(C)N2CC` (stereo not given): the GI50 is 0.472 µM in assay [1]; 0.596 µM in assay [2]; 1.21 µM in assay [3]; 0.558 µM in assay [4]; 1.16 µM in assay [5]; 1.61 µM in assay [6]. The GI50 in assay [7] was 3.14 µM; in assay [8] it was 1.65 µM. In addition, the TGI in assay [1] was 2.71 µM; in assay [2], 1.92 µM; in assay [3] it was 2.58 µM; in assay [4] it was 2.28 µM; in assay [5] it was 2.77 µM; in assay [6], 3.42 µM. The TGI in assay [7] was over 100 µM; in assay [8], 4.16 µM.

As to `CO/N=C1/c2cc(OC)ccc2-c2c(NOC)nc3ccccc3c21`, the GI50 was 70.1 µM in assay [1]; 16 µM in assay [3]; 21.3 µM in assay [4]; 32.6 µM in assay [5]; 0.103 µM in assay [6]; 53 µM in assay [7]. The GI50 in assay [8] was over 100 µM. Besides, the TGI was over 100 µM in assay [1]; 46.2 µM in assay [3]; 88.2 µM in assay [4]; over 100 µM in assay [5]; 23.7 µM in assay [6]; over 100 µM in assay [7]. The TGI in assay [8] was over 100 µM.

Take `O=C1c2cc3c(cc2-c2c1c1ccc([N+](=O)[O-])cc1c(=O)n2CCCCl)OCO3`: the GI50 in assay [1] was 0.279 µM; in assay [4], 2.4 µM; in assay [5] it was 2.09 µM; in assay [7] it was 0.0743 µM; in assay [8], 0.0268 µM. The TGI in assay [1] was over 100 µM; in assay [2], over 100 µM; in assay [3] it was over 100 µM; in assay [4], over 100 µM; in assay [5] it was over 100 µM; in assay [8] it was 76.6 µM.

As to `CN(C)/[N+]([O-])=N/Oc1cc(Nc2ccc(C(=O)O)cc2)c([N+](=O)[O-])cc1[N+](=O)[O-]`, the GI50 in assay [4] is 26.5 µM; in assay [5], 19.6 µM; in assay [7], 29.8 µM; in assay [8], 22.1 µM. The TGI is 53.1 µM in assay [4], 36.4 µM in assay [5], over 100 µM in assay [7] and 51.7 µM in assay [8].

As to `CC(C)(C)c1ccc(-c2nnc(SCc3ccc(Cl)cc3)n2-c2cccc(C(F)(F)F)c2)cc1`, the TGI in assay [1], in assay [2], in assay [3], in assay [4], in assay [5] and in assay [6] was over 100 µM each time. Also, the TGI in assay [7] and in assay [8] was over 100 µM throughout.

As for `COc1ccccc1Nc1nc(-c2cc3cccc(C(F)(F)F)c3oc2=O)cs1`, the GI50 in assay [1] was 0.291 µM; in assay [2], 0.237 µM; in assay [3], 0.112 µM; in assay [4] it was 0.162 µM; in assay [5], 0.151 µM; in assay [6], 1.63 µM. Moreover, the GI50 in assay [7] was 0.0468 µM; in assay [8] it was 0.142 µM. Besides, the TGI in assay [1] was over 100 µM; in assay [2], over 93.9 µM; in assay [3], 33.1 µM; in assay [4], over 100 µM; in assay [5] it was over 100 µM; in assay [6], over 85.6 µM. In addition, the TGI in assay [7] is 5.55 µM; in assay [8] it was over 100 µM.

For `CCN1C(=O)N(c2c(F)c(OC)cc(OC)c2F)Cc2cnc3[nH]c(CN4CCOCC4)cc3c21`, the GI50 in assay [1] is 2.13 µM; in assay [3], 2.06 µM; in assay [4] it was 4.34 µM; in assay [5], 0.947 µM; in assay [6], 1.45 µM; in assay [7] it was 4.48 µM. Also, the GI50 in assay [8] is 0.528 µM. Also, the TGI in assay [1] is over 100 µM; in assay [3] it was over 100 µM; in assay [4], over 100 µM; in assay [5] it was over 100 µM; in assay [6], 20.2 µM; in assay [7], over 100 µM. In addition, in assay [8], the TGI is over 100 µM.

With `O=c1c2ccccc2nc(-c2ccc(Cl)cc2)n1O`, the TGI is 59.8 µM in assay [1]; over 100 µM in assay [2]; 88.8 µM in assay [3]; over 100 µM in assay [4]; over 100 µM in assay [5]; 58.2 µM in assay [7]. Further, the TGI in assay [8] is over 100 µM.

As to `CCOC(=O)C(=Cc1ccccc1Br)C(=O)OCC`, the TGI in assay [1] was over 100 µM; in assay [3] it was 7.57 µM; in assay [4], 14.9 µM; in assay [5], 3.71 µM; in assay [6] it was 8.26 µM; in assay [7], over 100 µM. In assay [8], this compound had a TGI of 6.83 µM.

Regarding `Cc1ccc(Cl)cc1Nc1nc(C(F)(F)F)ccc1C(=O)Oc1ccc(Cl)cc1`, the GI50 in assay [1] was 7.68 µM; in assay [2] it was 12.2 µM; in assay [3], 1.92 µM; in assay [4], 5.85 µM; in assay [5], 10.9 µM; in assay [7], 15.6 µM. In assay [8], the GI50 is 3.31 µM. Also, the TGI stood at 24.4 µM in assay [1]; 37.4 µM in assay [2]; 14.8 µM in assay [3]; 21.1 µM in assay [4]; 30.8 µM in assay [5]; 46.6 µM in assay [7]. For the same compound, the TGI in assay [8] is 13.2 µM.

For the compound `Cc1cc(S(N)(=O)=O)c(S/C(=N\NS(=O)(=O)c2ccc(Cl)cc2)c2ccc(Cl)cc2)cc1Cl`, the GI50 in assay [1] is 61 µM; in assay [2] it was over 100 µM; in assay [3] it was over 100 µM; in assay [4], 56.8 µM; in assay [5], over 100 µM; in assay [7], over 100 µM. In addition, the GI50 in assay [8] was over 100 µM. The TGI in assay [1], in assay [2], in assay [3], in assay [4], in assay [5] and in assay [7] was over 100 µM throughout. This compound also displayed a TGI in assay [8] of over 100 µM.

In the case of `O=C(Nc1ccccc1Cl)c1ccc(NC2=C(Cl)C(=O)N(Cc3ccccc3)C2=O)cc1`, the GI50 is over 100 µM in assay [1]; over 100 µM in assay [2]; 40 µM in assay [4]; 15 µM in assay [5]; 86.1 µM in assay [6]; 86.2 µM in assay [7]. The GI50 in assay [8] is 43.5 µM. Also, the TGI in assay [1] was over 100 µM; in assay [2], over 100 µM; in assay [4], over 100 µM; in assay [5], 29.2 µM; in assay [6], over 100 µM; in assay [7], over 100 µM. In assay [8], this compound registered a TGI of over 100 µM.

Take `NS(=O)(=O)c1ccc(-n2nc(-c3ccc(Cl)cc3)cc2C2=CC(=O)C=CC2=O)cc1`: the GI50 in assay [1] was 3.57 µM; in assay [3], 28 µM; in assay [4], 19.4 µM; in assay [5] it was 16.1 µM; in assay [7], 27.2 µM; in assay [8], 25.2 µM. Moreover, the TGI is over 100 µM in assay [1]; over 100 µM in assay [3]; 56.2 µM in assay [4]; 32.2 µM in assay [5]; 63.5 µM in assay [7]; 48.5 µM in assay [8].

Take `Oc1ccc2ccccc2c1/C=N\Nc1ccccn1`: the GI50 in assay [1] was 0.328 µM; in assay [2], 0.64 µM; in assay [3] it was 0.403 µM; in assay [4] it was 0.933 µM; in assay [5], 0.511 µM; in assay [7], 0.281 µM. The GI50 in assay [8] is 0.212 µM. The TGI was over 55 µM in assay [2]; over 100 µM in assay [3]; over 100 µM in assay [4]; over 100 µM in assay [5]; 33.3 µM in assay [7]; 0.678 µM in assay [8].

`Cc1ccc(/C=C2\CCOC2=O)cc1`: the GI50 in assay [1], in assay [2], in assay [3], in assay [4], in assay [5] and in assay [6] was over 100 µM each time. Besides, the GI50 in assay [7] was over 100 µM. Besides, the TGI in assay [1], in assay [2], in assay [3], in assay [4], in assay [5] and in assay [6] was over 100 µM each time. The compound further yielded a TGI in assay [7] of over 100 µM.

As for `COC(=O)c1c(-c2ccccc2)csc1NC(=O)c1c(-c2ccccc2)noc1C`, the GI50 in assay [1] is 1.77 µM; in assay [2], 3.08 µM; in assay [4] it was 1.28 µM; in assay [5], 0.0809 µM; in assay [6], over 100 µM; in assay [7], 1.5 µM. For the same compound, the GI50 in assay [8] is 0.745 µM. Also, the TGI in assay [1], in assay [2], in assay [4], in assay [5], in assay [6] and in assay [7] was over 100 µM throughout. The same compound returned a TGI in assay [8] of over 100 µM.

Consider `CC1=C(C(=O)Nc2ccc(F)c(Cl)c2)C(c2cccc(Cl)c2)NC(=O)N1` (stereo not given), for which the GI50 is 21.2 µM in assay [1]; 19.1 µM in assay [2]; 15.5 µM in assay [3]; 17.2 µM in assay [4]; 20.6 µM in assay [5]; 27.5 µM in assay [7]. The GI50 in assay [8] was 27.3 µM. The TGI in assay [1] worked out at 58.2 µM; in assay [2], 44.6 µM; in assay [3], 33 µM; in assay [4], 46.9 µM; in assay [5] it was 46.9 µM; in assay [7], 67.6 µM. In assay [8], the TGI was over 100 µM.
